Laboratory results as given in ChEMBL document CHEMBL3396980, “Total synthesis of Herbarin A and B, determination of their antioxidant properties and toxicity in zebrafish embryo model” (Bioorg Med Chem Lett, 2015).

Columns and labels:
[1] = Antioxidant activity assessed as ferric ion reducing activity using fe3+-TPTZ assessed as fe2+-TPTZ formation at 0.1 to 1 mM by spectrophotometry based FRAP assay; type: physicochemical; conditions: 1000 µM
[2] = organism: Danio rerio; assay: Toxicity in wild type zebrafish embryo in E3 medium treated for 2 days observed on 24 hrs of post fertilization by microscopy; type: organism-based; conditions: in vivo, 48 h
[3] = organism: Danio rerio; assay: Toxicity in wild type zebrafish embryo in E3 medium assessed as teratogenicity treated at 9 to 190 nM for 2 days observed on 24 hrs of post fertilization by microscopy; type: organism-based; conditions: in vivo, 48 h, 0.19 µM

Activity [1]	Compound	Activity [2]	Activity [3]
Active	COc1cc(=O)oc(/C=C/C=C/C(=O)O)c1C	Non-toxic	
Active	COc1cc(=O)oc(/C=C/C(=O)O)c1C		100%
